Results on five molecules are retold here after article PMC10113214 (Scientific Reports, 2023).

Series [1] is described as follows: Circular dichroism, conformation and thermal stability of β-sheet. The class given is physicochemical. The method, then:
The molar ellipticity of peptides were registered on a Jasco J-815 spectrometer (JASCO, Easton, MD, USA). Solutions of peptide hybrids were prepared in water solution (10 mg/ml), incubated at 37 °C for 4 h and then diluted to a final concentration of 0.20 mg/ml. CD spectra measurements were performed at 25 °C, 30 °C, 35 °C, 40 °C, 45 °C, 50 °C, 55 °C and 60 °C, at 190–260 nm wavelength and at a scan speed of […]. The background of the solvent was subtracted. The results are presented as the relationship of mean residue molar ellipticity (MRME) [deg × cm^2 × dmol^−1] to wavelength [nm]. Measurements were performed in triplicate. In order to determine the peptides’ denaturation temperatures, the molar ellipticity rotatory angle at a fixed wavelength of 196 nm, [θ]196, was measured as a function of temperature (max 100 °C). CD temperature measurements were carried out up to a temperature of 100 °C. Above this temperature, the cure was extrapolated with GraphPad Prism 8 software using the 4PL curve fit function. The denaturation temperature was determined as the temperature at which the change in ellipticity (θ) was half complete.
On the technique in general: Circular dichroism is widely used to follow secondary structure.

The target of series [2] is T1, Human neutrophil elastase (Homo sapiens, UniProt P08246).
T1 construct: purchased Sigma-Aldrich
T1 sequence (P08246 30-267): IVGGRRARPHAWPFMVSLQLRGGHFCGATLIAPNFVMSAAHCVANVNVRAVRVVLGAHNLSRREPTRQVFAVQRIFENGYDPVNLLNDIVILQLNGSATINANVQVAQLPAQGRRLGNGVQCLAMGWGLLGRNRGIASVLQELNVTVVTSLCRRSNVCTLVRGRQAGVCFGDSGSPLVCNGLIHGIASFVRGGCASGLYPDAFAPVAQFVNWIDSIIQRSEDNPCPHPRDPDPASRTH
Kind of series: Elastase enzymatic cleavage. The class given is in vitro ADME. As to conditions: human neutrophil elastase 150 nM, peptide 1 mM, 30 min, 37 °C. The protocol:
Human neutrophil elastase (EC No. 3.4.21.37, Sigma-Aldrich) was used to study peptide susceptibility to that enzyme. Peptides were dissolved in 0.1 M Tris HCl, 500 mM NaCl, 0.05% Triton X-100, 20 mM CaCl2 pH 7.5 buffer mixture. Peptides (final concentration 1 mM) were mixed with the enzyme (final concentration 150 nM) and incubated for 30 min. in a thermoshaker (37 °C, 300 rpm). The reaction was stopped by a 10% aqueous solution of TFA. The results were analyzed using HPLC and MALDI or LC–MS. Details of this experiment are described in the Supplementary Data.

Series [3] is described as follows: Transmission electron microscopy of nanofibres. The class given is physicochemical. As to conditions: 1% gel in PBS diluted to 0.001%, uranyl acetate stain. The protocol: 1% gel solutions were prepared and incubated in PBS. The samples were then diluted to 0.001% concentration. A drop of solution was applied to a microcellulose membrane and stained with a 1.5% solution of uranyl acetate. The images were registered on a Tecnai Spirit BioTwin FEI Transmission Electron Microscope operating at 120 kV.

In a further series the test system is dorsal skin wounds. Put plainly: Histological evaluation of skin samples. The class given is in vivo, BALB/c mice. As to conditions: Masson’s trichrome. The text has this:
Mice were sacrificed on day 18 post-injury. In addition, for investigation of early wound healing, 1 mouse from each group was sacrificed on day 4 post-injury. The skin samples were collected and stored in formalin. Skin samples embedded in paraffin were cut into 5 µm sections following staining with Masson’s trichrome (green: collagen, dermis; grey or dark grey: cell nuclei, epidermis, sebaceous glands; dark red: keratinized epidermis, muscle, hair; light red: red blood cells). Image acquisitions were made with a Leica DM IL microscope. To evaluate the collagen density in dorsal skin wounds, we employed the method of colour deconvolution described by Ruifrok and Johnston[52]. Using the ImageJ software with a colour deconvolution plug-in[53], we analyzed between 7 and 9 images of dorsal skin samples stained with Masson’ trichrome, representing 2–3 mice per group. The results are presented as mean relative collagen density.

A further series is described as follows: Rheology of hydrogels. As to conditions: 1% hydrogel, 37 °C. The class given is physicochemical. The method, then: Rheological parameters of the hydrogels were identified using an MCR 302 rheometer (Anton Paar GmbH, Graz, Austria). The rheometer was equipped with a CP50-1 stainless steel cone-and-plate system of 50 mm diameter, 1° cone angle and 50 µm cone truncation and a Peltier controlled temperature unit. An aliquot of 900 µL of 1% hydrogel was applied to a plate cone. The linear viscoelastic (LVE) region was determined through an amplitude sweeps: shear strain (0.01–100% at 6 rad s^−1) and shear stress (0.001–10 Pa at 6.28 rad s^−1). Frequency sweep were measured from 0.01 to 100 rad s^−1 at 2.5% strain. The frequency dependence of the storage modulus (G’) and loss modulus (G”) of the hydrogels were measured at 37 °C. All experiments were carried out in triplicate and reported as the mean of three repeats.

The subject of series [4] is full-thickness excisional dorsal skin wounds. Put plainly: Skin wound healing model in mice. The class given is in vivo, BALB/c mice. The following applies: BALB/c female mice, 6.0 mm punch dorsal wounds, 10 µL 1% hydrogel topically daily for five days; n = 6, SD. The method, then:
Eight to ten-week-old BALB/c female mice were used for these experiments. All experimental procedures were approved by the Local Ethics Committee for Animal Experimentation in Bydgoszcz, Poland (Approval No. 49/2016). The study was conducted in compliance with the ARRIVE gudidelines. All animal handling methods were carried out in accordance with European Union Commission Recommendation of 18 June 2007 on guidelines for the accommodation and care of animals used for experimental and other scientific purposes. Before experiments, mice were randomized and divided into groups comprising six individuals. The mice were anaesthetized with inhaled 2–5% isoflurane. The skin on the dorsum was shaved and disinfected. After the skin was folded and raised cranially and caudally along the spine, the mouse was placed in a lateral position, and the folded skin was pierced with a 6.0 mm biopsy punch to make two through-and-through symmetrical wounds. Next, 10 µL of peptide hybrid hydrogel was applied onto each wound. Every gel was prepared in sterile conditions in biological safety cabinet, using sterile water to final concentration of 10 mg/ml (1%). Then the gels were incubated for 24 h allowing it to assemble. Control mice were treated with RADA16-I. The wounds were covered with a transparent Tegaderm TM dressing to protect the wound from outer environment of the cage and other animals. It was fastened with an adhesive plaster wrapped around the animal’s torso. The peptide hybrids were applied daily to the wounds for five consecutive days. The dressings were replaced daily in the first five days of the experiment and every second day until the end of the second week of the experiment. To measure the wound areas the wounds were photographed with a ruler placed next to the injury site. Wound areas were calculated using the computer-assisted image analysis program ImageJ[51].

Series [5] relates to Human neutrophil elastase (EC No. 3.4.21.37, Sigma-Aldrich). Put plainly: Human neutrophil elastase (final concentration 150 nM) in 0.1 M Tris HCl, 500 mM NaCl, 0.05% Triton X-100, 20 mM CaCl2 pH 7.5 buffer mixture. The following applies: 37 °C, up to 30 min.

“Also recorded” adds a separate entry of the source.

Consider `CC(=O)N[C@@H](CCCNC(=N)N)C(=O)N[C@@H](C)C(=O)N[C@@H](CC(=O)O)C(=O)N[C@@H](C)C(=O)N[C@@H](CCCNC(=N)N)C(=O)N[C@@H](C)C(=O)N[C@@H](CC(=O)O)C(=O)N[C@@H](C)C(=O)N[C@@H](CCCNC(=N)N)C(=O)N[C@@H](C)C(=O)N[C@@H](CC(=O)O)C(=O)N[C@@H](C)C(=O)N[C@@H](CCCNC(=N)N)C(=O)N[C@@H](C)C(=O)N[C@@H](CC(=O)O)C(=O)N[C@@H](C)C(N)=O` [RADA16-I, Ac-(Arg-Ala-Asp-Ala)4-NH2], for which the “heat stability of β-sheet structure (rank)” value in series [1] (CD scans at different temperatures) is on record as “lowest stability of β-sheet structure”.
With `CC(=O)N[C@@H](CCCNC(=N)N)C(=O)N[C@@H](C)C(=O)N[C@@H](CC(=O)O)C(=O)N[C@@H](C)C(=O)N[C@@H](CCCNC(=N)N)C(=O)N[C@@H](C)C(=O)N[C@@H](CC(=O)O)C(=O)N[C@@H](C)C(=O)N[C@@H](CCCNC(=N)N)C(=O)N[C@@H](C)C(=O)N[C@@H](CC(=O)O)C(=O)N[C@@H](C)C(=O)N[C@@H](CCCNC(=N)N)C(=O)N[C@@H](C)C(=O)N[C@@H](CC(=O)O)C(=O)N[C@@H](C)C(=O)NCC(=O)NCC(=O)NCC(=O)N[C@@H](C)C(=O)N[C@@H](C)C(=O)N1CCC[C@H]1C(=O)N[C@H](C(=O)NCC(=O)NCC(=O)NCC(=O)N[C@@H](CCCNC(=N)N)C(=O)N[C@@H](CC(=O)O)C(=O)N[C@@H](CCCCN)C(=O)N[C@H](C(=O)N[C@@H](Cc1ccc(O)cc1)C(=O)N[C@@H](CCCNC(=N)N)C(N)=O)C(C)C)C(C)C` [RADA-IM, Ac-(Arg-Ala-Asp-Ala)4-Gly-Gly-Gly-Ala-Ala-Pro-Val-Gly-Gly-Gly-Arg-Asp-Lys-Val-Tyr-Arg-NH2], in series [2] (300 rpm, 0.1 M Tris HCl, 500 mM NaCl, 0.05% Triton X-100, 20 mM CaCl2 pH 7.5, HPLC and MALDI or LC-MS, fragment Ac-(RADA)4-GGG-AAPV-COOH), the “identified fragments of peptides after elastase digestion (most abundant MS signals)” value is “Ac-(RADA)4-GGG-AAPV-COOH”. Moreover, in series [2] (pH 7.5 buffer, HPLC, mass spectrometry), the “main / predominant fragments of elastase digestion” value was “Gly^24Gly^25Gly^26Arg^27Asp^28Lys^29Val^30Tyr^31Arg^32”. Further, the “fibre thickness (TEM)” value in series [3] is listed as 6–8 nm. In addition, the “collagen density on day 18 post-injury” value with dorsal skin wounds (colour deconvolution, 7–9 images, 2–3 mice per group) is “statistically significant lower collagen density than the RADA16-I sample”. The “hair follicles in wound area on day 18” value with dorsal skin wounds (day 18 post-injury) is listed as “many hair follicles could be observed”. For the same molecule, the “epithelium (membrane-like structure) thickness on day 4 post-injury” value with dorsal skin wounds (versus RADA16-I group, Mann–Whitney U test) is “significantly thicker epithelium”. The “magnitude of G’ compared with other gels” value in “Rheology of hydrogels” (cone-plate, frequency sweep, mean of three repeats) is recorded as “around one-tenth of these values”. Further, the “shear strain above which the gel behaves like a liquid (G” > G’)” value in “Rheology of hydrogels” (strain sweep, ω = 6.28 rad/s) is given as “above 30%”. For the same molecule, the “wound closure on day 7” value in series [4] was 16.2 ± 21.1%. For the same molecule, the “temperature of first disruption of the β-sheets” value in series [1] (CD, [θ]196 nm as function of temperature 4–100 °C, gel 10 mg/ml in water, 37 °C 4 h, diluted to 0.20 mg/ml, decrease of molar ellipticity) was around 52 °C. Also, in series [1] (CD, [θ]196 nm vs temperature, 0.20 mg/ml in water, above 100 °C curve extrapolated, 4PL fit), the “transition temperature (half β-conformation, half disordered)” value was 95 °C.
“Ac-(Arg-Ala-Asp-Ala)4-Gly-Gly-Gly-Ala-Ala-Pro-Val-Gly-Gly-Gly-Arg-Asp-Lys-Val-Tyr-Arg-NH2”: the cleaved bond entry in series [5] is recorded as “Val23-Gly24, major; also recorded: Gly24-Gly25, major”.
Consider “Ac-(Arg-Ala-Asp-Ala)4-Gly-Gly-Gly-Ala-Ala-Pro-Val-Gly-Gly-Gly-His-Lys-NH2”, for which, in series [5], the cleaved bond result is “Val23-Gly24; also recorded: Gly25-Gly26, major”.
As to “Ac-(Arg-Ala-Asp-Ala)4-Gly-Gly-Gly-Ala-Ala-Pro-Val-Gly-Gly-Gly-Lys-Gly-His-Lys-NH2”, the cleaved bond entry in series [5] was “Val23-Gly24; also recorded: Ala21-Pro22, major; also recorded: Ala20-Ala21, major”.
